In patent US20130259807A1, “CELL CULTURE SCREEN FOR AGENTS THAT CONTROL ADIPOGENESIS AND MYOFIBROBLAST DIFFERENTIATION” (THE REGENTS OF THE UNIVERSITY OF CALIFORNIA, priority 2010, published 2013):

System: rat mesenchymal stem cells
Experiment: Culture screening adipogenesis assay (lipid accumulation, Oil Red O / BODIPY)
Format: cell-based
Details: insulin in the progressing medium, positive control set as 100%
Procedure: To prepare adipogenesis initiation/priming medium, a IBMX standard solution ([…]) is diluted 1:1000 and a dexamethasone standard solution (1 μM dexamethasone standard solution (in DMSO)) is diluted 1:10,000 in DMEM+10% FCS. A typical cocktail of antibiotics can be added to restrict microbe growth. This initiation medium can be stored for up to 6 weeks at 4° C.
To prepare positive control progression medium, a standard insulin solution (10 μg/ml insulin) is diluted 1:1000 in DMEM+10% FCS. Antibiotics of choice are added to control growth of microbes. This control progression medium can be stored for up to 6 weeks at 4° C.
To prepare experimental/test (e.g., RHAMM blocking or other experimental adipogenic promoting reagent) progression medium, test agents are provided in a standard solution (e.g. 0.001-10 μg RHAMM antibody, peptide mimetic(s), or other test agent(s)). The test agent solution is diluted to the desired concentration (e.g. 1 ng-10 μg RHAMM peptide) in DMEM+10% FCS. […]
Cells for the adipogenesis screen can be plated as follows: The cells are trypsinized and then resuspended in 1 ml DMEM+10% CS to neutralize the trypsin. The cells are then counted. […]
The dye can be extracted with methanol:ethanol (1:1) mixture and read oil red O at 520 nm using an ELISA plate reader or for BODIPY® using a fluorometer that detects FITC.

Substance: insulin
- Extent of lipid accumulation (Oil Red O at 520 nm): 100%
